Test results from paper PMC10589713 (Proceedings of the National Academy of Sciences of the …, 2023).
“And” between values parts separate entries of the source, which are not always exact repeats. Equal values may be shown once.

Tested on: SARS-CoV-2
Test: microbe, parasite or virus in culture
Assay type: cell-based

## O=c1ccn([C@@H]2O[C@H](CO)[C@@H](O)[C@H]2O)c(=S)[nH]1 [s2U, 2-thiouridine]
  EC50: 2000 nM and 2200 nM and 1800 nM and 2900 nM and 1900 nM and 2500 nM
